Experimental data reported in US7342004B2, “Thioether sulphamate steroids as steroid inhibitors and anti-cancer compounds” (Sterix Ltd., priority 2000, dated 2008).

molecular target: CuZnSOD (UniProt P00442); assay: Superoxide dismutase (SOD) spectrophotometric XTT assay, Protocol 1; assay type: biochemical; conditions: read-out: IC 50/μM (+/− SEM) SOD Inhibition, xanthine oxidase/XTT, 24° C., 30 minutes

| SMILES | IC50 [µM] |
| --- | --- |
| COc1cc2c(cc1O)CCC1C2CCC2(C)C1CCC2(O)Cc1ccccc1 (stereo not drawn) [Compound 13, 2-methoxy-17α-benzyl-estradiol] | 88 |
| COc1cc2c(cc1O)CCC1C2CCC2(C)C1CCC2(O)Cc1ccc(C(C)(C)C)cc1 (stereo not drawn) [Compound 23, 2-methoxy-17α-(4-tert-butylbenzyl)oestradiol] | > 100 |

same assay, conditions: xanthine oxidase/XTT, 24° C., 30 minutes, read-out: IC 50/μM (+/− SEM) SOD Inhibition

| SMILES | IC50 [µM] |
| --- | --- |
| CC12CCC3c4cc(I)c(O)cc4CCC3C1CCC2=O (stereo not shown) [Compound 16, 2-iodoestrone] | > 100 |
| CC12CCC3c4cc(S(C)(=O)=O)c(O)cc4CCC3C1CCC2=O (stereo not shown) [Compound 19, 2-methylsulfonylestrone] | > 100 |
| CC12CCC3c4cc([N+](=O)[O-])c(O)cc4CCC3C1CCC2=O (stereo not shown) [Compound 20, 2-nitroestrone] | > 100 |
| CCc1cc2c(cc1O)CCC1C2CCC2(C)C(=O)CCC12 (stereo not shown) [Compound 21, 2-ethylestrone] | > 100 |
| COc1cc2c(c([N+](=O)[O-])c1O)CCC1C2CCC2(C)C(=O)CCC12 (stereo not shown) [Compound 22, 2-methoxy-4-nitroestrone] | > 100 |
| CCc1cc2c(cc1OS(N)(=O)=O)CCC1C2CCC2(C)C(=O)CCC12 (stereo not shown) [Compound 26, 2-ethylestrone-3-O-sulphamate] | > 100 |
| CC12CCC3C(=CCc4cc(OS(N)(=O)=O)ccc43)C1CCC2=O (stereo not shown) [Compound 27, equilin-3-O-sulphamate] | > 100 |
| CSc1cc2c(cc1O)CCC1C2CC[C@]2(C)CCCC12 (stereo partly shown) [Compound 28, 2-methylsulfanyl-17-deoxyoestrone] | > 100 |
| COc1cc2c(cc1O)CCC1C2CC[C@]2(C)CCCC12 (stereo partly shown) [Compound 29, 2-methoxy-17-deoxyoestrone] | > 100 |

Continued, values first:

| IC50 [µM] | SMILES |
| --- | --- |
| 10 | CSc1cc2c(cc1O)CCC1C2CCC2(C)C(O)CCC12 (stereo not shown) [Compound 1, 2-methylsulfanylestradiol] |
| 11 | CCOc1cc2c(cc1O)CCC1C2CCC2(C)C(O)CCC12 (stereo not shown) [Compound 2, 2-ethoxyestradiol] |
| 12 | COc1cc2c(cc1O)CCC1C2CCC2(C)C(O)CCC12 (stereo not drawn) [Compound 3, 2-methoxy-17β-estradiol, reference compound] |
| 13 | COc1cc2c(cc1O)CCC1C2CCC2(C)C(O)CCC12 (stereo not drawn) [Compound 4, 2-methoxy-17α-estradiol] |
| 14 | COc1cc2c(cc1O)CCC1C2CCC2(C)C(=O)CCC12 (stereo not shown) [Compound 5, 2-methoxyestrone, reference compound] |
| 14 | CCSc1cc2c(cc1O)CCC1C2CCC2(C)C(O)CCC12 (stereo not shown) [Compound 6, 2-ethylsulfanylestradiol] |
| 19 | CCOc1cc2c(cc1O)CCC1C2CCC2(C)C(=O)CCC12 (stereo not shown) [Compound 7, 2-ethoxyestrone] |
| 79 | COc1cc2c(cc1N)CCC1C2CCC2(C)C(=O)CCC12 (stereo not shown) [Compound 9, 2-methoxy-3-aminoestrone] |
| 81 | CC12CCC3c4cc(F)c(O)cc4CCC3C1CCC2=O (stereo not shown) [Compound 11, 2-fluoroestrone] |
| 83 | CC12CCC3c4cc(Cl)c(O)cc4CCC3C1CCC2=O (stereo not shown) [Compound 12, 2-chloroestrone] |
| 91 | COc1cc2c3c(c(=O)oc2cc1O)CCCCC3 [Compound 14, 3-Hydroxy-2-methoxy-6-oxo-8,9,10,11-tetrahydro-7H-cyclohepta-[c][1]benzopyran] |
| > 100 | C=CCc1cc2c(cc1O)CCC1C2CCC2(C)C(=O)CCC12 (stereo not shown) [Compound 15, 2-allylestrone] |
| > 100 | CC12CCC3c4cc(C(F)F)c(O)cc4CCC3C1CCC2=O (stereo not shown) [Compound 17, 2-difluoromethylestrone] |
| > 100 | C[S+]([O-])c1cc2c(cc1O)CCC1C2CCC2(C)C(=O)CCC12 (stereo not shown) [Compound 18, 2-methylsulfoxyestrone] |
